According to patent US20220340875A1, “METHODS OF CULTURING AND/OR EXPANDING STEM CELLS AND/OR LINEAGE COMMITTED PROGENITOR CELLS USING AMIDO COMPOUNDS” (IDEAYA BIOSCIENCES, INC., priority 2018, published 2022):

Molecular target: T1, hAhR (Homo sapiens, UniProt P35869)
T1 construct: Stably integrated DRE-luciferase cell lines were generated by transducing the both cell lines with Cignal XRE luciferase reporter (Qiagen) lentiviral particles; endogenous in cells
T1 sequence (P35869 11-848): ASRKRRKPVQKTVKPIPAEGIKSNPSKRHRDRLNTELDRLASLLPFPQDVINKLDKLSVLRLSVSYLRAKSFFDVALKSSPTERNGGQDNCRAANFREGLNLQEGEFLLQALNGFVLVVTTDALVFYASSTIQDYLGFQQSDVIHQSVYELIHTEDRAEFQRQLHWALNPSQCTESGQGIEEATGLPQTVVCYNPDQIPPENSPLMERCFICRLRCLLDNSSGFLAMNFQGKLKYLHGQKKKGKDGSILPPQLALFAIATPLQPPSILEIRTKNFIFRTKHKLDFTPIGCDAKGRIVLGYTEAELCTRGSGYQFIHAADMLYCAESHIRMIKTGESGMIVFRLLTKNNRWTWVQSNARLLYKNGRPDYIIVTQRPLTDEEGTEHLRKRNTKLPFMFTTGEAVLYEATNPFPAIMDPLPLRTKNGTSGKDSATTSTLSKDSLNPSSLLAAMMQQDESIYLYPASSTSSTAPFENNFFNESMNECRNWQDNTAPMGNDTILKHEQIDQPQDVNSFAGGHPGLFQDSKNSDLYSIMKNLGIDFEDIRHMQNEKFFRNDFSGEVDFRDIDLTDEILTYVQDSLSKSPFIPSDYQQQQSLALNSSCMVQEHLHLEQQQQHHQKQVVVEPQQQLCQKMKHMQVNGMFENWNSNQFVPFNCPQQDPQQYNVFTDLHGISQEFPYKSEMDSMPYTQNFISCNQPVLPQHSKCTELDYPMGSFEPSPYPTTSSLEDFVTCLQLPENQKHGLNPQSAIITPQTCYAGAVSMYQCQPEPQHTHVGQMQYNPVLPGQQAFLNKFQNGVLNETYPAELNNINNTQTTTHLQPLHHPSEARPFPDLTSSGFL
Experiment: AhR DRE-luciferase reporter transcriptional assay, antagonist mode (TCDD-induced)
Type: cell-based
Settings: HEPG2 DRE-Luc cells, 3 nM TCDD, 24 hour incubation, relative IC50
Method: HEPG2 and HEPA1C1C7 cells were maintained in MEM and αMEM without nucleosides supplemented with 10% heat inactivated FBS respectively. Stably integrated DRE-luciferase cell lines were generated by transducing the both cell lines with Cignal XRE luciferase reporter (Qiagen) lentiviral particles according to the manufacturer protocol. For both cell lines stably integrated reporter cell lines were selected for the presence of 2 µg/mL puromycin. Following selection of stably integrated cell line pools, clonal cell lines were isolated by limiting dilution in 96-well plates. Transcriptional assays were performed by seeding 100 μL of cells at a density of 250,000 or 100,000 cells/mL, for HEPG2 and HEPA1C1C7 DRE-Luc cells respectively, into 96-well cell culture plates in OptiMEM supplemented with 0.5% heat inactivated FBS and allowed to attach overnight. For modulator assays, the compounds were added in a semi-log dose response using a D300e Digital Dispenser (Tecan) followed normalization with vehicle (DMSO). Immediately following compound addition 10 μL of 2,3,7,8-Tetrachlorodibenzo-p-dioxin (TCDD) was added to the cells to a final concentration of 3 nM or 0.3 nM for the HEPG2 and HEPA1C1C7 DRE-Luc cells respectively. Following 24 hour incubation the medium was removed and the cells were lysed in 25 μL of Reporter Lysis Buffer (Promega). Firefly luciferase activity was measured immediately following the addition of 50 μL Luciferase Assay Reagent (Promega). The percent maximal activity for each point was determined using the following equasion: (RLUsample-RLUvehicle−TCDD)/(RLUvehicle+TCDD RLUvehicle−TCDD)*100. The relative IC50, defined as the compound concentration required to reduce the TCDD induced response between the top and bottom plateau of each individual dose response curve by half, for each compound was determined using Prism 7 (GraphPad Software).

Row | SMILES | IC50
1 | Cc1cc(-c2ncc3nc(C(F)(F)F)cc(C)c3n2)ccc1N(C)C(=O)c1cc(C(N)=O)nn1CC#N [Example 198, 1-(cyanomethyl)-N5-methyl-N5-(2-methyl-4-(8-methyl-6-(trifluoro-methyl)pyrido[3,2-d]pyrimidin-2-yl)phenyl)-1H-pyrazole-3,5-dicarboxamide] | < 200 nM
2 | Cc1cc(-c2ccc3cccc(C)c3n2)ccc1NC(=O)c1ccnn1C [Example 020, 1-Methyl-N-(2-methyl-4-(8-methylquinolin-2-yl)phenyl)-1H-pyrazole-5-carboxamide] | < 200 nM
3 | Cc1cc(C(F)(F)F)nc2cnc(-c3ccc(NC(=O)c4ccnn4C)c(F)c3)nc12 [Example 163, N-[2-fluoro-4-[8-methyl-6-(trifluoromethyl)pyrido[3,2-d]pyrimidin-2-yl]phenyl]-1-methyl-1H-pyrazole-5-carboxamide] | < 200 nM
4 | Cc1cc(-c2ccc3ccc(C(F)(F)F)cc3n2)ccc1NC(=O)c1ccnn1C [Example 078, 1-methyl-N-(2-methyl-4-(7-(trifluoromethyl)quinolin-2-yl)phenyl)-1H-pyrazole-5-carboxamide] | 200 to 500 nM
5 | Cc1cc(-c2ncc3nc(C(F)(F)F)cc(C)c3n2)c(F)cc1N(C)C(=O)c1ccnn1C [Example 181, N-(5-fluoro-2-methyl-4-(8-methyl-6-(trifluoromethyl)pyrido[3,2-d]pyrimidin-2-yl)phenyl)-N,1-dimethyl-1H-pyrazole-5-carboxamide] | < 200 nM
6 | Cc1cc(-c2ccc3cc(C(F)(F)F)ccc3n2)ccc1NC(=O)C(F)(F)F [Example 080, 2,2,2-trifluoro-N-(2-methyl-4-(6-(trifluoromethyl)quinolin-2-yl)phenyl)acetamide] | 1000 to 10000 nM
7 | Cc1cc(-c2ncc3cc(C(F)(F)F)ccc3n2)ccc1N(C)C(=O)c1nn(C)cc1C [Example 214, N,1,4-trimethyl-N-(2-methyl-4-(6-(trifluoromethyl)quinazolin-2-yl)phenyl)-1H-pyrazole-3-carboxamide] | 200 to 500 nM
8 | Cc1cc(-c2cc(C)c3ccccc3n2)ccc1NC(=O)OC(C)(C)C [Example 015, tert-butyl (2-methyl-4-(4-methylquinolin-2-yl)phenyl)carbamate] | 1000 to 10000 nM
9 | Cc1cc(-c2ncc3cc(C(F)(F)F)ccc3n2)ccc1N(C)C(=O)c1ncn[nH]1 [Example 134, N-methyl-N-(2-methyl-4-(6-(trifluoromethyl)quinazolin-2-yl)phenyl)-1H-1,2,4-triazole-5-carboxamide] | 200 to 500 nM
10 | Cc1cc(-c2ncc3nc(C(F)(F)F)cc(C)c3n2)ccc1N(C)C(=O)c1ccnc(C(N)=O)c1 [Example 168, N4-methyl-N4-(2-methyl-4-(8-methyl-6-(trifluoromethyl)pyrido[3,2-d]pyrimidin-2-yl)phenyl)pyridine-2,4-dicarboxamide] | < 200 nM
11 | Cc1cc(-c2nc3cc(C(F)(F)F)ccc3s2)ccc1NC(=O)c1ccnn1C [Example 100, 1-methyl-N-(2-methyl-4-(5-(trifluoromethyl)benzo[d]thiazol-2-yl)phenyl)-1H-pyrazole-5-carboxamide] | 200 to 500 nM
12 | Cc1cc(-c2ncc3nc(C(F)(F)F)cc(C)c3n2)ccc1NC(=O)c1ccnn1CC(N)=O [Example 170, 1-(2-amino-2-oxoethyl)-N-(2-methyl-4-(8-methyl-6-(trifluoromethyl)-pyrido[3,2-d]pyrimidin-2-yl)phenyl)-1H-pyrazole-5-carboxamide] | < 200 nM
13 | Cc1cc(-c2ccc3cc(F)ccc3n2)ccc1NC(=O)c1cccnc1 [Example 027, N-(4-(6-fluoroquinolin-2-yl)-2-methylphenyl)nicotinamide] | 500 to 1000 nM
14 | Cc1cc(N(C)C(=O)c2ccnn2C)ccc1-c1ncc2nc(C(F)(F)F)ccc2n1 [Example 187, N,1-dimethyl-N-(3-methyl-4-(6-(trifluoromethyl)pyrido[3,2-d]pyrimidin-2-yl)phenyl)-1H-pyrazole-5-carboxamide] | < 200 nM
15 | Cc1cc(-c2ccc3cc(F)ccc3n2)ccc1NC(=O)c1cnccn1 [Example 032, N-(4-(6-fluoroquinolin-2-yl)-2-methylphenyl)pyrazine-2-carboxamide] | 500 to 1000 nM
16 | Cc1cnccc1C(=O)N(C)c1ccc(-c2ncc3cc(C(F)(F)F)ccc3n2)cc1C [Example 122, N,3-dimethyl-N-(2-methyl-4-(6-(trifluoromethyl)quinazolin-2-yl)phenyl)isonicotinamide] | < 200 nM
17 | Cc1cc(-c2ccc3cc(C#N)ccc3n2)ccc1NC(=O)c1ccnn1C [Example 073, N-(4-(6-cyanoquinolin-2-yl)-2-methylphenyl)-1-methyl-1H-pyrazole-5-carboxamide] | < 200 nM
18 | Cc1cc(-c2ccc3cc(C4CC4)ccc3n2)ccc1N(C)C(=O)c1ccnn1C [Example 069, N-(4-(6-cyclopropylquinolin-2-yl)-2-methylphenyl)-N,1-dimethyl-1H-pyrazole-5-carboxamide] | 1000 to 10000 nM
19 | Cc1cc(-c2ncc3nc(C(F)(F)F)cc(C)c3n2)ccc1NC(=O)c1ccnn1CCO [Example 172, 1-(2-hydroxyethyl)-N-[2-methyl-4-[8-methyl-6-(trifluoromethyl)pyrido-[3,2-d]pyrimidin-2-yl]phenyl]-1H-pyrazole-5-carboxamide] | < 200 nM
20 | Cc1c(-c2ccc3cc(C(F)(F)F)ccc3n2)ccc(N(C)C(=O)c2ccnn2C)c1F [Example 006, N-(2-fluoro-3-methyl-4-(6-(trifluoromethyl)quinolin-2-yl)phenyl)-N,1-dimethyl-1H-pyrazole-5-carboxamide] | 1000 to 10000 nM
21 | COc1cc(C(=O)Nc2ccc(-c3ncc4cc(C(F)(F)F)ccc4n3)cc2C)ccn1 [Example 142, 2-methoxy-N-(2-methyl-4-(6-(trifluoromethyl)quinazolin-2-yl)phenyl)isonicotinamide] | < 200 nM
22 | Cc1cc(-c2ncc3cc(C(F)(F)F)ccc3n2)ccc1N(C)C(=O)c1c(C)cnn1C [Example 217, N,1,4-trimethyl-N-(2-methyl-4-(6-(trifluoromethyl)quinazolin-2-yl)phenyl)-1H-pyrazole-5-carboxamide] | < 200 nM
23 | Cc1cc(-c2ccc3cc(C(F)(F)F)ccc3n2)ccc1N(C)C(=O)c1ccnn1CCO [Example 209, 1-(2-hydroxyethyl)-N-methyl-N-(2-methyl-4-(6-(trifluoromethyl)quinolin-2-yl)phenyl)-1H-pyrazole-5-carboxamide] | < 200 nM
24 | Cc1cc(-c2ncc3nc(C(F)(F)F)ccc3n2)ccc1NC(=O)c1ccnn1C [Example 135, 1-methyl-N-(2-methyl-4-(6-(trifluoromethyl)pyrido[3,2-d]pyrimidin-2-yl)phenyl)-1H-pyrazole-5-carboxamide] | < 200 nM
25 | Cc1c(NC(=O)c2ccnn2C)ccc(-c2ncc3nc(C(F)(F)F)ccc3n2)c1C [Example 190, N-(2,3-dimethyl-4-(6-(trifluoromethyl)pyrido[3,2-d]pyrimidin-2-yl)phenyl)-1-methyl-1H-pyrazole-5-carboxamide] | 1000 to 10000 nM
26 | Cc1cc(-c2ccc3cc(F)ccc3n2)ccc1NC(=O)c1cocn1 [Example 036, N-(4-(6-fluoroquinolin-2-yl)-2-methylphenyl)oxazole-4-carboxamide] | 500 to 1000 nM
27 | Cc1cc(C(=O)N(C)c2ccc(-c3ncc4cc(C(F)(F)F)ccc4n3)cc2C)ccn1 [Example 120, N,2-dimethyl-N-(2-methyl-4-(6-(trifluoromethyl)quinazolin-2-yl)phenyl)isonicotinamide] | < 200 nM
28 | Cc1cc(-c2ccc3ccn(C)c3c2)ccc1NC(=O)c1ccnn1C [Example 082, 1-Methyl-N-(2-methyl-4-(1-methyl-1H-indol-6-yl)phenyl)-1H-pyrazole-5-carboxamide] | 500 to 1000 nM
